Results: PubChem BioAssay AID2060627 (Molecular Pharmacology Branch, DTP, NCI, 2025)

System: 156681-154-R-J1-PDC complex spheroid viability
Test: Anticancer human tumor 156681-154-R-J1-PDC patient-derived melanoma cell line growth inhibition [CLK]
Conditions: for IC50: curve of first compound; for viability, T/C: stronger effect = lower value
How it was run: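 Patient-derived tumor cells grown as complex spheroids with HUVEC endothelial cells and mesenchymal stem cells, treated with drug combinations. Concentrations descend in half-log steps from near clinical Cmax, or from 10 microM if Cmax unknown.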

[1] = second compound 0.0316 µM, first compound 0.00316 µM
[2] = second compound 0.0316 µM, first compound 0.01 µM
[3] = second compound 0.0316 µM, first compound 0.0316 µM
[4] = second compound 0.0316 µM, first compound 0.1 µM
[5] = second compound 0.0316 µM, first compound 0.316 µM
[6] = second compound 0.0316 µM, first compound 1 µM
[7] = second compound 0.1 µM, first compound 0.00316 µM
[8] = second compound 0.1 µM, first compound 0.01 µM
[9] = second compound 0.1 µM, first compound 0.0316 µM
[10] = second compound 0.1 µM, first compound 0.1 µM
[11] = second compound 0.1 µM, first compound 0.316 µM
[12] = second compound 0.1 µM, first compound 1 µM
[13] = second compound 0.316 µM, first compound 0.00316 µM
[14] = second compound 0.316 µM, first compound 0.01 µM
[15] = second compound 0.316 µM, first compound 0.0316 µM
[16] = second compound 0.316 µM, first compound 0.1 µM
[17] = second compound 0.316 µM, first compound 0.316 µM
[18] = second compound 0.316 µM, first compound 1 µM
[19] = second compound 1 µM, first compound 0.00316 µM
[20] = second compound 1 µM, first compound 0.01 µM
[21] = second compound 1 µM, first compound 0.0316 µM
[22] = second compound 1 µM, first compound 0.1 µM
[23] = second compound 1 µM, first compound 0.316 µM
[24] = second compound 1 µM, first compound 1 µM
[25] = second compound 3.16 µM, first compound 0.00316 µM
[26] = second compound 3.16 µM, first compound 0.01 µM
[27] = second compound 3.16 µM, first compound 0.0316 µM
[28] = second compound 3.16 µM, first compound 0.1 µM
[29] = second compound 3.16 µM, first compound 0.316 µM
[30] = second compound 3.16 µM, first compound 1 µM
[31] = second compound 10 µM, first compound 0.00316 µM
[32] = second compound 10 µM, first compound 0.01 µM
[33] = second compound 10 µM, first compound 0.0316 µM
[34] = second compound 10 µM, first compound 0.1 µM
[35] = second compound 10 µM, first compound 0.316 µM
[36] = second compound 10 µM, first compound 1 µM
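Note: spheroids exposed to the agents for seven days.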
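Throughout, for viability, T/C: 100% = DMSO vehicle control viability.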

**Q.** How did the IC50 (second compound 0.0316 µM) turn out when `CCN1CCN(Cc2ccc(Nc3ncc(F)c(-c4cc(F)c5nc(C)n(C(C)C)c5c4)n3)nc2)CC1` + CNC(=O)c1ccc(Nc2nc(OC3CCCC3)c3c(-c4ccc5nc(C)oc5c4)c[nH]c3n2)c(OC)c1 was run?
**A.** The IC50 was 825 nM.

**Q.** What about the IC50 (second compound 0.1 µM) of the same molecule?
**A.** The IC50 was 429 nM.

**Q.** And the IC50 (second compound 0.316 µM)?
**A.** Its IC50 is 429 nM.

**Q.** What about the IC50 (second compound 1 µM) of the same molecule?
**A.** Its IC50 is 394 nM.

**Q.** What about the IC50 (second compound 3.16 µM) of the same molecule?
**A.** The IC50 was < 3.16 nM.

**Q.** And the IC50 (second compound 10 µM)?
**A.** The IC50 was < 3.16 nM.

**Q.** And the viability, T/C [1]?
**A.** The viability, T/C was 93%.

**Q.** What about the viability, T/C [2] of the same molecule?
**A.** The viability, T/C was 104%.

**Q.** What about the viability, T/C [3] of the same molecule?
**A.** The viability, T/C was 83.7%.

**Q.** What about the viability, T/C [4] of the same molecule?
**A.** The viability, T/C was 84.2%.

**Q.** What about the viability, T/C [5] of the same molecule?
**A.** Its viability, T/C is 75.5%.

**Q.** And the viability, T/C [6]?
**A.** Its viability, T/C is 44.3%.

**Q.** What about the viability, T/C [7] of the same molecule?
**A.** Its viability, T/C is 50.5%.

**Q.** And the viability, T/C [8]?
**A.** Its viability, T/C is 72.3%.

**Q.** And the viability, T/C [9]?
**A.** The viability, T/C was 68.2%.

**Q.** What about the viability, T/C [10] of the same molecule?
**A.** Its viability, T/C is 57.9%.

**Q.** And the viability, T/C [11]?
**A.** The viability, T/C was 52.9%.

**Q.** And the viability, T/C [12]?
**A.** Its viability, T/C is 38.6%.

**Q.** What about the viability, T/C [13] of the same molecule?
**A.** The viability, T/C was 85.4%.

**Q.** What about the viability, T/C [14] of the same molecule?
**A.** Its viability, T/C is 62%.

**Q.** What about the viability, T/C [15] of the same molecule?
**A.** The viability, T/C was 72.2%.

**Q.** What about the viability, T/C [16] of the same molecule?
**A.** Its viability, T/C is 77.8%.

**Q.** And the viability, T/C [17]?
**A.** Its viability, T/C is 54%.

**Q.** And the viability, T/C [18]?
**A.** Its viability, T/C is 39%.

**Q.** What about the viability, T/C [19] of the same molecule?
**A.** Its viability, T/C is 51.8%.

**Q.** And the viability, T/C [20]?
**A.** The viability, T/C was 56.5%.

**Q.** What about the viability, T/C [21] of the same molecule?
**A.** The viability, T/C was 51.3%.

**Q.** What about the viability, T/C [22] of the same molecule?
**A.** The viability, T/C was 60.2%.

**Q.** What about the viability, T/C [23] of the same molecule?
**A.** Its viability, T/C is 61%.

**Q.** What about the viability, T/C [24] of the same molecule?
**A.** Its viability, T/C is 24.2%.

**Q.** What about the viability, T/C [25] of the same molecule?
**A.** The viability, T/C was 61.6%.

**Q.** What about the viability, T/C [26] of the same molecule?
**A.** The viability, T/C was 47.8%.

**Q.** And the viability, T/C [27]?
**A.** The viability, T/C was 40.7%.

**Q.** And the viability, T/C [28]?
**A.** Its viability, T/C is 48%.

**Q.** What about the viability, T/C [29] of the same molecule?
**A.** The viability, T/C was 46.6%.

**Q.** What about the viability, T/C [30] of the same molecule?
**A.** The viability, T/C was 19.8%.

**Q.** And the viability, T/C [31]?
**A.** The viability, T/C was 51.7%.

**Q.** What about the viability, T/C [32] of the same molecule?
**A.** Its viability, T/C is 38.5%.

**Q.** And the viability, T/C [33]?
**A.** Its viability, T/C is 43.8%.

**Q.** And the viability, T/C [34]?
**A.** Its viability, T/C is 51%.

**Q.** What about the viability, T/C [35] of the same molecule?
**A.** The viability, T/C was 41.9%.

**Q.** What about the viability, T/C [36] of the same molecule?
**A.** The viability, T/C was 21.7%.

**Q.** How did the IC50 (second compound 0.0316 µM) turn out when `COc1c(OCCCN2CCOCC2)ccc2c3n(c(=NC(=O)c4cnc(N)nc4)nc12)CCN3` + CNC(=O)c1ccc(Nc2nc(OC3CCCC3)c3c(-c4ccc5nc(C)oc5c4)c[nH]c3n2)c(OC)c1 was run?
**A.** Its IC50 is 17.4 nM.

**Q.** And the IC50 (second compound 0.1 µM)?
**A.** The IC50 was 10.2 nM.

**Q.** What about the IC50 (second compound 0.316 µM) of the same molecule?
**A.** Its IC50 is 7 nM.

**Q.** And the IC50 (second compound 1 µM)?
**A.** The IC50 was 3.39 nM.

**Q.** What about the IC50 (second compound 3.16 µM) of the same molecule?
**A.** Its IC50 is < 3.16 nM.

**Q.** And the IC50 (second compound 10 µM)?
**A.** Its IC50 is < 3.16 nM.

**Q.** What about the viability, T/C [1] of the same molecule?
**A.** The viability, T/C was 74.4%.

**Q.** And the viability, T/C [2]?
**A.** The viability, T/C was 64.8%.

**Q.** What about the viability, T/C [3] of the same molecule?
**A.** Its viability, T/C is 33.8%.

**Q.** And the viability, T/C [4]?
**A.** Its viability, T/C is 17.3%.

**Q.** And the viability, T/C [5]?
**A.** The viability, T/C was 2.95%.

**Q.** What about the viability, T/C [6] of the same molecule?
**A.** The viability, T/C was 0.22%.

**Q.** What about the viability, T/C [7] of the same molecule?
**A.** Its viability, T/C is 50.5%.

**Q.** What about the viability, T/C [8] of the same molecule?
**A.** The viability, T/C was 56.1%.

**Q.** And the viability, T/C [9]?
**A.** Its viability, T/C is 33.5%.

**Q.** And the viability, T/C [10]?
**A.** Its viability, T/C is 18.5%.

**Q.** What about the viability, T/C [11] of the same molecule?
**A.** The viability, T/C was 2.54%.

**Q.** And the viability, T/C [12]?
**A.** The viability, T/C was 0.32%.

**Q.** And the viability, T/C [13]?
**A.** The viability, T/C was 61.2%.

**Q.** What about the viability, T/C [14] of the same molecule?
**A.** The viability, T/C was 44.2%.

**Q.** What about the viability, T/C [15] of the same molecule?
**A.** The viability, T/C was 27.9%.

**Q.** And the viability, T/C [16]?
**A.** The viability, T/C was 13.3%.

**Q.** What about the viability, T/C [17] of the same molecule?
**A.** The viability, T/C was 4.38%.

**Q.** What about the viability, T/C [18] of the same molecule?
**A.** The viability, T/C was 3.9%.

**Q.** And the viability, T/C [19]?
**A.** The viability, T/C was 50.8%.

**Q.** What about the viability, T/C [20] of the same molecule?
**A.** The viability, T/C was 37.3%.

**Q.** What about the viability, T/C [21] of the same molecule?
**A.** Its viability, T/C is 18.8%.

**Q.** What about the viability, T/C [22] of the same molecule?
**A.** Its viability, T/C is 6.93%.

**Q.** What about the viability, T/C [23] of the same molecule?
**A.** Its viability, T/C is 1.63%.

**Q.** What about the viability, T/C [24] of the same molecule?
**A.** Its viability, T/C is 0.35%.

**Q.** What about the viability, T/C [25] of the same molecule?
**A.** The viability, T/C was 47.6%.

**Q.** And the viability, T/C [26]?
**A.** The viability, T/C was 35.5%.

**Q.** What about the viability, T/C [27] of the same molecule?
**A.** The viability, T/C was 19.9%.

**Q.** And the viability, T/C [28]?
**A.** Its viability, T/C is 6.45%.

**Q.** And the viability, T/C [29]?
**A.** The viability, T/C was 1.23%.

**Q.** And the viability, T/C [30]?
**A.** The viability, T/C was 0.32%.

**Q.** What about the viability, T/C [31] of the same molecule?
**A.** The viability, T/C was 49.1%.

**Q.** What about the viability, T/C [32] of the same molecule?
**A.** The viability, T/C was 30.9%.

**Q.** And the viability, T/C [33]?
**A.** The viability, T/C was 10.6%.

**Q.** And the viability, T/C [34]?
**A.** The viability, T/C was 5.7%.

**Q.** And the viability, T/C [35]?
**A.** Its viability, T/C is 1.04%.

**Q.** What about the viability, T/C [36] of the same molecule?
**A.** Its viability, T/C is 0.31%.
